In ChEMBL document CHEMBL3244280, “Thiazolinone analogues of indolmycin with antiviral and antibacterial activity” (J Med Chem, 1978):
≈ marks a conversion by molar mass, not a printed value. Calls of active or inactive are those of the source. No cut-off for these calls is given here.

Legend:
[1] = Cytotoxicity against BHK cells; assay type: cell-based, Mesocricetus auratus; conditions: hamster
Influenza A virus [2] = test: Antiviral activity against influenza A virus NWS/H0N1 infected in BHK cells at 1 mg/ml by agar diffusion assay; assay type: functional; conditions: read-out: IZ
Coxsackievirus B1 [3] = test: Antiviral activity against Coxsackievirus B1 infected in human HeLa cells at 1 mg/ml by agar diffusion assay; assay type: functional; conditions: Enterovirus B; read-out: IZ
[4] = Cytotoxicity against human HeLa cells by neutral red assay; assay type: cell-based
Coxsackievirus B1 [5] = test: Antiviral activity against Coxsackievirus B1 infected in human HeLa cells by agar diffusion assay; assay type: functional
Influenza A virus [6] = test: Antiviral activity against influenza A virus NWS/H0N1 infected in BHK cells by agar diffusion assay; assay type: functional
Streptococcus pyogenes [7] = test: Antibacterial activity against Streptococcus pyogenes CN10; assay type: functional
Bacillus subtilis [8] = test: Antibacterial activity against Bacillus subtilis; assay type: functional
Staphylococcus aureus [9] = test: Antibacterial activity against Staphylococcus aureus Russel; assay type: functional
Human alphaherpesvirus 1 = test: Antiviral activity against Herpes simplex virus 1 infected in chick embryo fibroblasts by plaque reduction assay; assay type: functional, organism-based
Enterococcus faecalis [10] = test: Antibacterial activity against Streptococcus faecalis I; assay type: functional
Staphylococcus aureus [11] = test: Antibacterial activity against Staphylococcus aureus 1517; assay type: functional
Staphylococcus aureus [12] = test: Antibacterial activity against Staphylococcus aureus Oxford; assay type: functional
HeLa = test: Cytotoxicity against human HeLa cells up to 100 ug/ml; assay type: cell-based
Enterococcus faecalis [13] = test: Antibacterial activity against Streptococcus faecalis I up to 200 ug/ml; assay type: functional, organism-based
Staphylococcus aureus [14] = test: Antibacterial activity against Staphylococcus aureus Russel up to 200 ug/ml; assay type: functional, organism-based
Influenza A virus [15] = test: Antiviral activity against influenza A virus NWS/H0N1 infected in BHK cells up to 100 ug/ml by agar diffusion assay; assay type: functional, organism-based
Staphylococcus aureus [16] = test: Antibacterial activity against Staphylococcus aureus 1517 up to 200 ug/ml; assay type: functional, organism-based
Staphylococcus aureus [17] = test: Antibacterial activity against Staphylococcus aureus Oxford up to 200 ug/ml; assay type: functional, organism-based
Bacillus subtilis [18] = test: Antibacterial activity against Bacillus subtilis up to 200 ug/ml; assay type: functional, organism-based
[19] = Cytotoxicity against BHK cells up to 100 ug/ml by carbol fuschin assay; assay type: cell-based, Mesocricetus auratus; conditions: hamster
Streptococcus pyogenes [20] = test: Antibacterial activity against Streptococcus pyogenes CN10 up to 200 ug/ml; assay type: functional, organism-based
Coxsackievirus B1 [21] = test: Antiviral activity against Coxsackievirus B1 infected in human HeLa cells up to 100 ug/ml by agar diffusion assay; assay type: functional, organism-based

Structure (SMILES)	MCC [1]	zone of inhibition at 1000 µg/mL (Influenza A virus [2])	zone of inhibition at 1000 µg/mL (Coxsackievirus B1 [3])	MCC [4]	PDD50 (Coxsackievirus B1 [5])	PDD50 (Influenza A virus [6])	MIC (Streptococcus pyogenes [7])	MIC (Bacillus subtilis [8])	MIC (Staphylococcus aureus [9])	Activity (Human alphaherpesvirus 1)	MIC (Enterococcus faecalis [10])	MIC (Staphylococcus aureus [11])	MIC (Staphylococcus aureus [12])	other results
OC(c1ccccc1)c1nc2ccccc2[nH]1 (stereo unspecified)	> 100 µg/mL	0 mm	24 mm	100 µg/mL	20 µg/mL	>100 µg/mL	–	–	–	–	–	–	–	–
C[C@H](c1c[nH]c2ccccc12)[C@@H]1SC(N)=NC1=O	100 µg/mL	0 mm	0 mm	–	–	50 µg/mL	200 µg/mL (≈ 771 µM)	200 µg/mL (≈ 771 µM)	20 µg/mL (≈ 77.1 µM)	inactive	20 µg/mL (≈ 77.1 µM)	20 µg/mL (≈ 77.1 µM)	–	–
NC1=NC(=O)C(Cc2c[nH]c3ccccc23)S1 (racemic)	–	0 mm	0 mm	–	–	–	> 200 µg/mL	> 200 µg/mL	200 µg/mL (≈ 815 µM)	inactive	200 µg/mL (≈ 815 µM)	200 µg/mL (≈ 815 µM)	200 µg/mL (≈ 815 µM)	–
CNC1=NC(=O)C(Cc2c[nH]c3ccccc23)S1 (racemic)	30 µg/mL	14 mm	9 mm	> 100 µg/mL	100 µg/mL	10 µg/mL	200 µg/mL (≈ 771 µM)	> 200 µg/mL	20 µg/mL (≈ 77.1 µM)	inactive	20 µg/mL (≈ 77.1 µM)	20 µg/mL (≈ 77.1 µM)	20 µg/mL (≈ 77.1 µM)	–
O=C1N/C(=N\c2ccccc2)SC1Cc1c[nH]c2ccccc12 (racemic)	–	–	–	–	–	–	–	–	–	inactive	–	–	–	Activity (HeLa): Non-toxic; Activity (Enterococcus faecalis [13]): inactive; Activity (Staphylococcus aureus [14]): inactive; Activity (Influenza A virus [15]): inactive; Activity (Staphylococcus aureus [16]): inactive; Activity (Staphylococcus aureus [17]): inactive; Activity (Bacillus subtilis [18]): inactive; Activity [19]: Non-toxic; Activity (Streptococcus pyogenes [20]): inactive; Activity (Coxsackievirus B1 [21]): inactive
O=C1NC(=S)SC1Cc1c[nH]c2ccccc12 (racemic)	–	–	–	–	–	–	–	–	–	inactive	–	–	–	Activity (HeLa): Non-toxic; Activity (Enterococcus faecalis [13]): inactive; Activity (Staphylococcus aureus [14]): inactive; Activity (Influenza A virus [15]): inactive; Activity (Staphylococcus aureus [16]): inactive; Activity (Staphylococcus aureus [17]): inactive; Activity (Bacillus subtilis [18]): inactive; Activity [19]: Non-toxic; Activity (Streptococcus pyogenes [20]): inactive; Activity (Coxsackievirus B1 [21]): inactive
CNC1=NC(=O)[C@H]([C@H](C)c2c[nH]c3ccccc23)S1 (racemic)	10 µg/mL	36 mm	29 mm	30 µg/mL	5 µg/mL	3 µg/mL	200 µg/mL (≈ 732 µM)	20 µg/mL (≈ 73.2 µM)	2 µg/mL (≈ 7.32 µM)	–	2 µg/mL (≈ 7.32 µM)	2 µg/mL (≈ 7.32 µM)	2 µg/mL (≈ 7.32 µM)	–
C[C@H](c1c[nH]c2ccccc12)[C@@H]1SC(N(C)C)=NC1=O (racemic)	–	0 mm	0 mm	–	–	–	> 200 µg/mL	> 200 µg/mL	20 µg/mL (≈ 69.6 µM)	inactive	> 200 µg/mL	20 µg/mL (≈ 69.6 µM)	20 µg/mL (≈ 69.6 µM)	–
CCNC1=NC(=O)[C@H]([C@H](C)c2c[nH]c3ccccc23)S1 (racemic)	10 µg/mL	34 mm	16 mm	> 100 µg/mL	10 µg/mL	5 µg/mL	200 µg/mL (≈ 696 µM)	200 µg/mL (≈ 696 µM)	20 µg/mL (≈ 69.6 µM)	inactive	20 µg/mL (≈ 69.6 µM)	20 µg/mL (≈ 69.6 µM)	20 µg/mL (≈ 69.6 µM)	–
C[C@H](c1c[nH]c2ccccc12)[C@@H]1SC(NCCO)=NC1=O (racemic)	100 µg/mL	8 mm	20 mm	> 100 µg/mL	16 µg/mL	>30 µg/mL	200 µg/mL (≈ 659 µM)	> 200 µg/mL	200 µg/mL (≈ 659 µM)	inactive	200 µg/mL (≈ 659 µM)	200 µg/mL (≈ 659 µM)	200 µg/mL (≈ 659 µM)	–
C[C@H](c1c[nH]c2ccccc12)[C@@H]1SC(NCCN(C)C)=NC1=O.Cl (racemic)	–	–	–	–	–	–	–	–	–	inactive	–	–	–	Activity (HeLa): Non-toxic; Activity (Enterococcus faecalis [13]): inactive; Activity (Staphylococcus aureus [14]): inactive; Activity (Influenza A virus [15]): inactive; Activity (Staphylococcus aureus [16]): inactive; Activity (Staphylococcus aureus [17]): inactive; Activity (Bacillus subtilis [18]): inactive; Activity [19]: Non-toxic; Activity (Streptococcus pyogenes [20]): inactive; Activity (Coxsackievirus B1 [21]): inactive
C/N=C1/S[C@@H]([C@H](C)c2c[nH]c3ccccc23)C(=O)N1C (racemic)	4 µg/mL	–	–	12 µg/mL	3 µg/mL	1.2 µg/mL	200 µg/mL (≈ 696 µM)	20 µg/mL (≈ 69.6 µM)	2 µg/mL (≈ 6.96 µM)	inactive	2 µg/mL (≈ 6.96 µM)	2 µg/mL (≈ 6.96 µM)	2 µg/mL (≈ 6.96 µM)	Activity (HeLa): Non-toxic; Activity (Enterococcus faecalis [13]): inactive; Activity (Staphylococcus aureus [14]): inactive; Activity (Influenza A virus [15]): inactive; Activity (Staphylococcus aureus [16]): inactive; Activity (Staphylococcus aureus [17]): inactive; Activity (Bacillus subtilis [18]): inactive; Activity [19]: Non-toxic; Activity (Streptococcus pyogenes [20]): inactive; Activity (Coxsackievirus B1 [21]): inactive
CNC1=NC(=O)[C@@H]([C@H](C)c2c[nH]c3ccccc23)O1 (racemic)	> 100 µg/mL	0 mm	0 mm	–	–	>100 µg/mL	> 200 µg/mL	> 200 µg/mL	200 µg/mL (≈ 777 µM)	–	200 µg/mL (≈ 777 µM)	200 µg/mL (≈ 777 µM)	200 µg/mL (≈ 777 µM)	–
CNC1=NC(=O)[C@H]([C@H](C)c2c[nH]c3ccccc23)O1 (racemic) [INDOMYCIN]	> 100 µg/mL	0 mm	0 mm	–	–	>100 µg/mL	200 µg/mL (≈ 777 µM)	20 µg/mL (≈ 77.7 µM)	2 µg/mL (≈ 7.77 µM)	–	2 µg/mL (≈ 7.77 µM)	2 µg/mL (≈ 7.77 µM)	2 µg/mL (≈ 7.77 µM)	–
CC1(C)S[C@@H]2[C@H](NC(=O)[C@H](N)c3ccccc3)C(=O)N2[C@H]1C(=O)O [AMPICILLIN]	–	–	–	–	–	–	2 µg/mL (≈ 5.72 µM)	2 µg/mL (≈ 5.72 µM)	2 µg/mL (≈ 5.72 µM)	–	2 µg/mL (≈ 5.72 µM)	20 µg/mL (≈ 57.2 µM)	2 µg/mL (≈ 5.72 µM)	–
NC(=O)c1ncn([C@@H]2O[C@H](CO)[C@@H](O)[C@H]2O)n1 [RIBAVIRIN]	> 100 µg/mL	28 mm	0 mm	> 100 µg/mL	>100 µg/mL	1 µg/mL	–	–	–	–	–	–	–	–
